In patent US20190038659A1, “METHODS OF TREATING AND PREVENTING AMYOTROPHIC LATERAL SCLEROSIS” (priority 2015, published 2019):
Entries after “also recorded” stand apart in the source; their conditions may differ. Where two headings read alike, the source gives them in different places.

What was measured:
HERV-K viral transcripts = test: HERV-K activation in human neuronal cultures after neuronal injury (viral transcripts); type: cell-based; conditions: human neurons; 3 mM 3-nitropropionic acid, 100 μM N-methyl-D-aspartate or 100 μM hydrogen peroxide, 18 hours
[1] = tested on: HERV-K reverse transcriptase; test: HERV-K RT activity in a cell-free system (PERT assay); type: biochemical, human endogenous retrovirus-K (HERV-K); conditions: inhibitor added to extracted HERV-K RT just prior to PERT assay
VSV-G pseudotyped HERV-K = test: cells; type: cell-based, human endogenous retrovirus-K (HERV-K); conditions: for IC90: Homo sapiens, HeLa, 144 h, read-out: IC90, HERV-K replication (gag RNA by qPCR)
HERV-K protease = test: HERV-K viral production from pCD-HK/Rev transfected HeLa cells with protease inhibitors (PERT assay of supernatant); type: cell-based, human endogenous retrovirus-K (HERV-K); conditions: for IC90: Homo sapiens; for inhibition of HERV-K viral production (in words): inhibitors added 6 hr after transfection, PERT assay
[2] = 2-fold serial dilution 31.25 nM to 1 μM
[3] = 2-fold serial dilution 31.25 nM to 1 μM, PERT 48 hrs, read-out: IC90, HERV-K viral production
[4] = 10-fold serial dilution 0.001 μM-100 μM, PERT 48 hr post-treatment, read-out: IC90, HERV-K protease / viral production, extensive dose-response

`O=C(O)CC[N+](=O)[O-]` [3-nitropropionic acid] was tested. Which “activation of HERV-K (viral transcripts)” value (HERV-K viral transcripts) did it give?
The value was “No activation of HERV-K”.

`Nc1nc(NC2CC2)c2ncn([C@H]3C=C[C@@H](CO)C3)c2n1` [Abacavir] was tested. Which “inhibition of HERV-K RT activity” value [1] did it give?
The value was “significant and dose-dependent inhibition”.

What about the “inhibition of HERV-K replication (in words)” value (VSV-G pseudotyped HERV-K) of the same compound?
The value was “effectively block; also recorded: inhibited HERV-K replication in a dose-dependent manner; also recorded: effectively inhibited”.

And the IC90 (VSV-G pseudotyped HERV-K)?
The IC90 was 175 nM.

Which results are given for `CC(C)CN(C[C@@H](O)[C@H](Cc1ccccc1)NC(=O)O[C@H]1CO[C@H]2OCC[C@H]21)S(=O)(=O)c1ccc(N)cc1` [Darunavir]?
rank among the HIV protease inhibitors tested (HERV-K protease; [2]): highest efficacy; also recorded: two most potent drugs; IC90 (HERV-K protease; [3]): ~100 nM; IC90 (HERV-K protease; [4]): 71 nM; inhibition of HERV-K viral production (in words) (HERV-K protease): inhibited HERV-K protease in a dose-dependent manner

How did the “inhibition of HERV-K RT activity” value [1] turn out when `O=C1Nc2ccc(Cl)cc2[C@@](C#CC2CC2)(C(F)(F)F)O1` [Efirvarenz] was run?
The value was “significant inhibition”.

With `Cc1cc(C#N)cc(C)c1Oc1nc(Nc2ccc(C#N)cc2)nc(N)c1Br` [Etravirine] as the compound, how does the “inhibition of HERV-K RT activity” value [1] read?
Its value is “significant inhibition”.

With `Cc1cccc(C)c1OCC(=O)N[C@@H](Cc1ccccc1)[C@@H](O)C[C@H](Cc1ccccc1)NC(=O)[C@H](C(C)C)N1CCCNC1=O` [Lopinavir] as the compound, how does the “rank among the HIV protease inhibitors tested” value (HERV-K protease; [2]) read?
Its value is “highest efficacy; also recorded: two most potent drugs”.

And the IC90 (HERV-K protease; [3])?
Its IC90 is ~100 nM.

What about the IC90 (HERV-K protease; [4]) of the same compound?
Its IC90 is 651 nM.

What about the “inhibition of HERV-K viral production (in words)” value (HERV-K protease) of the same compound?
Its value is “inhibited HERV-K protease in a dose-dependent manner”.

With `CN[C@H](CC(=O)O)C(=O)O` [N-methyl-D-aspartate] as the compound, how does the “activation of HERV-K (viral transcripts)” value (HERV-K viral transcripts) read?
Its value is “No activation of HERV-K”.

`Cc1ccnc2c1NC(=O)c1cccnc1N2C1CC1` [Nevirapine] was tested. Which “inhibition of HERV-K RT activity” value [1] did it give?
Its value is “significant inhibition”.

For `Cc1nnc(C(=O)NC(C)(C)c2nc(C(=O)NCc3ccc(F)cc3)c(O)c(=O)n2C)o1` [Raltegravir], which “inhibition of HERV-K replication (in words)” value (VSV-G pseudotyped HERV-K) is on record?
The value was “effectively block; also recorded: inhibited the replication of HERV-K in a dose-dependent manner; also recorded: effectively inhibited”.

What about the IC90 (VSV-G pseudotyped HERV-K) of the same compound?
The IC90 was 75 nM.

With `Cc1cn([C@H]2C=C[C@@H](CO)O2)c(=O)[nH]c1=O` [Stavudine] as the compound, how does the “inhibition of HERV-K RT activity” value [1] read?
Its value is “significant and dose-dependent inhibition”.

`C[C@H](Cn1cnc2c(N)ncnc21)OCP(=O)(O)O` [Tenofovir] was tested. Which “inhibition of HERV-K RT activity” value [1] did it give?
Its value is “significant and dose-dependent inhibition”.

What does the source list for `Cc1cn([C@H]2C[C@H](N=[N+]=[N-])[C@@H](CO)O2)c(=O)[nH]c1=O` [Zidovudine]?
inhibition of HERV-K RT activity [1]: significant and dose-dependent inhibition; inhibition of HERV-K replication (in words) (VSV-G pseudotyped HERV-K): effectively block; also recorded: inhibited HERV-K replication in a dose-dependent manner; also recorded: effectively inhibited; IC90 (VSV-G pseudotyped HERV-K): 70 nM

Which “activation of HERV-K (viral transcripts)” value (HERV-K viral transcripts) does the source give for `OO` [hydrogen peroxide] here?
The value was “No activation of HERV-K”.
